In brackets after ≈: the same amount, converted by molar mass. Like-named read-outs stand apart in the source and are kept apart here. Residues, ends and D or L forms follow the SMILES beside them.
How the values were obtained:
[1] = system: S. pseudintermedius strains; type: cell-based, Staphylococcus pseudintermedius; conditions: for GM MIC S. pseudintermedius: 24 h
Protocol: The broth microdilution technique was used to determine the minimum inhibitory concentrations (MIC) of peptides and antibiotics in MHB in accordance with the Clinical and Laboratory Standards Institute (CLSI) guidelines. Peptides were dissolved in sterile distilled water containing 0.02% acetic acid. MIC assays were carried out with an initial bacterial inoculum of 5×10^5 colony forming unit (CFU/ml). Peptides and antibiotics were added to Polystyrene 96 well plates (CytoOne, CC7672-7596) at desired concentrations and plates were incubated for 24 hr at 37°C. MIC was defined as the lowest concentration of peptide which inhibited the visible growth of bacteria. MIC was done in triplicates and the highest value was reported.
(§1) Untreated cells were used as a negative control.

[2] = system: human keratinocyte (HaCat); experiment: Cytotoxicity, MTS assay, HaCat; type: cell-based; conditions: for IC50: 24 h
Excerpt: as §1

[3] = system: macrophage-like cell line (J774A.1); experiment: Cytotoxicity, MTS assay, J774A.1; type: cell-based
[4] = system: methicillin sensitive Staphylococcus pseudintermedius (MSSP) strains
Protocol: (§2) Forty isolates of S. pseudintermedius (30 MSSP and 10 MRSP) identified at the Indiana Animal Disease Diagnostic laboratory from specimens collected from dogs admitted to the small animal teaching hospital at Purdue University were included in the study (Tables 2 and 3). […] Vitek identification of S. pseudintermedius was confirmed by a positive coagulase test. Antimicrobial susceptibility was determined by broth microdilution using the SensiTitre (Trek).
(§3) The broth microdilution technique was used to determine the minimum inhibitory concentrations (MIC) of peptides and antibiotics in MHB in accordance with the Clinical and Laboratory Standards Institute (CLSI) guidelines. Peptides were dissolved in sterile distilled water containing 0.02% acetic acid. […] MIC was defined as the lowest concentration of peptide which inhibited the visible growth of bacteria. MIC was done in triplicates and the highest value was reported.

[5] = system: methicillin resistant Staphylococcus pseudintermedius (MRSP) strains
Protocol: as §2, §3

[6] = system: Staphylococcus pseudintermedius (SP3); type: cell-based
Protocol: The synergistic effect between peptides and antimicrobial agents was determined by the combination assay as described previously. Peptide MICs against SP3 were determined in triplicate. […] Additive was defined as an FIC index of 1. Antagonism was defined as an FIC index of >4.

SP3 [7] = experiment: Growth kinetics (culture turbidity, OD600); type: cell-based, Staphylococcus pseudintermedius; conditions: SP3, 5 X MIC, MHB, OD600, within the same time frame (7 hours)
Protocol: The turbidity of bacterial culture after exposure to peptides was measured as described previously. Briefly, logarithmic growth of SP 3 was diluted in MHB to reach OD600≈0.25. One mL of diluted bacteria was added to a plastic cuvette (light path 1 cm). Peptides and antibiotics were added to cuvettes at a concentration equivalent to 5 X MIC as determined in antibacterial assays above. Cuvettes were incubated aerobically at 37°C. At specific time points, OD was measured at 600 nm wavelength by spectrophotometer. Cuvettes containing MHB without bacteria and with the same concentrations of peptide or antibiotic served as blanks. Nisin at 5 X MIC and untreated bacteria were used as positive and negative controls, respectively. The assay was repeated twice and the average was reported.

[8] = system: S. pseudintermedius (SP6); type: cell-based, Staphylococcus pseudintermedius; conditions: SP6, serial passages at 1/2 X MIC
Excerpt: Results were expressed as the ratio of MIC value after each passage compared to the initial MIC value.

MRSP (SP3) = experiment: Time kill assay; type: cell-based, Staphylococcus pseudintermedius; conditions: SP3, 5X MIC, MHB
Protocol: One strain of MRSP (SP3) was grown overnight in MHB, then diluted in fresh MHB and incubated for 2 hr until logarithmic growth phase was achieved. Then bacteria were centrifuged and washed twice with phosphate buffered saline (PBS) and adjusted to ∼5×10^5 CFU/ml in MHB. […] Aliquots at specified time points were taken, serially diluted in PBS and plated in triplicate on MHA. CFUs were counted after incubation of plates for 24 hr at 37°C.

[9] = system: mammalian cells (J774A.1 and HaCat); experiment: Cytotoxicity, MTS assay, statement for both cell lines; conditions: 24 hours
Protocol: Peptides were assayed at different concentrations against macrophage-like cell line (J774A.1) and human keratinocyte (HaCat) to determine the potential toxic effect in vitro. […] Untreated cells were used as a negative control. […] After incubation, the cells were washed three times with PBS and the media in each well were replaced with 100 µL of DMEM media and 20 µL of assay reagent, MTS 3-(4,5-dimethylthiazol-2-yl)-5-(3-carboxymethoxyphenyl)-2-(4-sulfophenyl)-2H-tetrazolium) (Promega, Madison, WI, USA). The cells were incubated further for 4 h at 37°C. Corrected absorbance readings (actual absorbance readings for each treatment subtracted from background absorbance) were taken using a kinetic ELISA microplate reader (Molecular Devices, Sunnyvale, CA, USA). Cell viability was expressed as percentage of absorbance in comparison to negative control, untreated cells.
Cytotoxicity data were subjected to statistical analysis using GraphPad Prism 6.0 (GraphPad Software, La Jolla, CA). Cytotoxicity data were analyzed using one-way ANOVA, with post hoc Tukey's multiple comparisons test. P-values of <0.01 were considered significant.

SP3 [10] = experiment: Bacterial membrane permeability (propidium iodide fluorescence); type: cell-based, Staphylococcus pseudintermedius; conditions: SP3, 5X MIC, 10 µM propidium iodide, 30 minutes; in comparison to (KFF)3K, WR-12 and penetratin
Protocol: Bacterial membrane damage was assessed by fluorescence change of propidium iodide dye as described previously. Briefly, SP3 was grown in MHB to logarithmic phase of growth then diluted to OD600≈0.25. Propidium iodide was mixed with bacteria to a final concentration of 10 µM. […] The percentage of membrane permeabilization was calculated as the percent of fluorescent intensity of peptide-treated samples with respect to fluorescence intensity of propidium iodide-loaded, peptide untreated samples.

[11] = compound serially diluted in the presence of (KFF)3K fixed at one-quarter of its MIC
[12] = compound serially diluted in the presence of IK8 “D isoform” fixed at one-quarter of its MIC
[13] = compound serially diluted in the presence of Penetratin fixed at one-quarter of its MIC
[14] = compound serially diluted in the presence of RR fixed at one-quarter of its MIC
[15] = compound serially diluted in the presence of RRIKA fixed at one-quarter of its MIC
[16] = compound serially diluted in the presence of WR-12 fixed at one-quarter of its MIC

NCCCC[C@H](NC(=O)[C@H](Cc1ccccc1)NC(=O)[C@H](Cc1ccccc1)NC(=O)[C@H](CCCCN)NC(=O)[C@H](Cc1ccccc1)NC(=O)[C@H](Cc1ccccc1)NC(=O)[C@H](CCCCN)NC(=O)[C@H](Cc1ccccc1)NC(=O)[C@H](Cc1ccccc1)NC(=O)[C@@H](N)CCCCN)C(N)=O [(KFF)3K] (H-KFFKFFKFFK-NH2)
GM MIC S. pseudintermedius [1]: 7.75 µM | IC50 [2]: > 256 µM | IC50 ([3]; 24 h): 256 µM | TI (Therapeutic index) J774A.1 ([3]; 24 h): 33/>33 | MIC50 [4]: 8 µM (≈ 11.3 µg/mL) | MIC90 [4]: 16 µM (≈ 22.6 µg/mL) | MIC50 [5]: 4 µM (≈ 5.65 µg/mL) | MIC90 [5]: 8 µM (≈ 11.3 µg/mL)

NCC[C@H](O)C(=O)N[C@@H]1C[C@H](N)[C@@H](O[C@H]2O[C@H](CN)[C@@H](O)[C@H](O)[C@H]2O)[C@H](O)[C@H]1O[C@H]1O[C@H](CO)[C@@H](O)[C@H](N)[C@H]1O [Amikacin, amikacin hydrate]
FIC index [6, 11]: 0.37 | FIC index [6, 12]: 0.75 | FIC index [6, 13]: 0.75 | FIC index [6, 14]: 0.75 | FIC index [6, 15]: 1 | FIC index [6, 16]: 1 | effect on culture turbidity (SP3 [7]): did not reduce the culture turbidity | passage at which shift (doubling) of the MIC began [8]: 4 passage | fold increase in the MIC by passage 10 ([8]; ratio to the initial MIC): 32 fold | log10 reduction after 12 hours incubation (MRSP (SP3)): 3 log10 | log10 reduction within 3 hours (MRSP (SP3); 37°C): less than one log10 reduction | time after which bactericidal activity was demonstrated (MRSP (SP3); data not shown): 12 h

O=C(O)c1cn(C2CC2)c2cc(N3CCNCC3)c(F)cc2c1=O [Ciprofloxacin, ciprofloxacin]
effect on culture turbidity (SP3 [7]): did not reduce the culture turbidity

CNC(C)C1CCC(N)C(OC2C(N)CC(N)C(OC3OCC(C)(O)C(NC)C3O)C2O)O1 (stereo not shown) [Gentamicin]
FIC index [6, 11]: 0.26 | FIC index [6, 12]: 1 | FIC index [6, 13]: 1 | FIC index [6, 14]: 0.75 | FIC index [6, 15]: 1 | FIC index [6, 16]: 0.75

CC[C@H](C)[C@H](NC(=O)CN)C(=O)NCC(=O)N[C@@H](C)C(=O)N[C@H](C(=O)N[C@@H](CC(C)C)C(=O)N[C@@H](CCCCN)C(=O)N[C@H](C(=O)N[C@@H](CC(C)C)C(=O)N[C@H](C(=O)N[C@H](C(=O)NCC(=O)N[C@@H](CC(C)C)C(=O)N1CCC[C@H]1C(=O)N[C@@H](C)C(=O)N[C@@H](CC(C)C)C(=O)N[C@H](C(=O)N[C@@H](CO)C(=O)N[C@@H](Cc1c[nH]c2ccccc12)C(=O)N[C@H](C(=O)N[C@@H](CCCCN)C(=O)N[C@@H](CCCNC(=N)N)C(=O)N[C@@H](CCCCN)C(=O)N[C@@H](CCCNC(=N)N)C(=O)N[C@@H](CCC(N)=O)C(=O)N[C@@H](CCC(N)=O)C(N)=O)[C@@H](C)CC)[C@@H](C)CC)[C@@H](C)O)[C@@H](C)O)C(C)C)C(C)C [Melittin, melittin, reference compound]
MIC ([1]; MIC of the melittin, strain not stated): 5 µM | IC50 ([3]; MTS assay, 24 hours treatment, 8 to 256 µM, DMEM 10% FBS, concentration that inhibits 50% of cells, read-out: IC50 J774A.1): 2 µM | concentration toxic to J774A.1 ([3]; MTS assay, positive control, 24 hours, P<0.01): 5 µM

CC[C@H](C)[C@H](NC(=O)[C@H](CCCNC(=N)N)NC(=O)[C@H](CCCNC(=N)N)NC(=O)[C@H](CC(C)C)NC(=O)[C@H](Cc1c[nH]c2ccccc12)NC(=O)[C@H](C)NC(=O)[C@H](CCCCN)NC(=O)[C@@H](NC(=O)[C@H](CCCNC(=N)N)NC(=O)[C@H](CCCNC(=N)N)NC(=O)[C@H](CC(C)C)NC(=O)[C@@H](N)Cc1c[nH]c2ccccc12)[C@@H](C)CC)C(=O)N[C@@H](CCCCN)C(=O)N[C@@H](C)C(=O)O [RRIKA]
GM MIC S. pseudintermedius [1]: 1.15 µM | IC50 [2]: 128 µM | TI (Therapeutic index) HaCat ([2]; ratio of the IC50 over the geometric mean MIC value): 111.2 | IC50 ([3]; 24 h): 64 µM | TI (Therapeutic index) J774A.1 ([3]; 24 h): 55.6 | MIC50 [4]: 1 µM (≈ 1.87 µg/mL) | MIC90 [4]: 2 µM (≈ 3.73 µg/mL) | MIC50 [5]: 1 µM (≈ 1.87 µg/mL) | MIC90 [5]: 1 µM (≈ 1.87 µg/mL)

CC[C@H](C)[C@H](NC(=O)[C@H](CCCNC(=N)N)NC(=O)[C@H](CCCNC(=N)N)NC(=O)[C@H](CC(C)C)NC(=O)[C@@H](N)Cc1c[nH]c2ccccc12)C(=O)N[C@@H](CCCCN)C(=O)N[C@@H](C)C(=O)N[C@@H](Cc1c[nH]c2ccccc12)C(=O)N[C@@H](CC(C)C)C(=O)N[C@@H](CCCNC(=N)N)C(=O)N[C@@H](CCCNC(=N)N)C(=O)O [RR] (H-WLRRIKAWLRR-OH)
concentration up to which not toxic to mammalian cells [9]: up to 64 µM

N=C(N)NCCC[C@H](NC(=O)[C@H](CCCNC(=N)N)NC(=O)[C@H](Cc1c[nH]c2ccccc12)NC(=O)[C@H](Cc1c[nH]c2ccccc12)NC(=O)[C@H](CCCNC(=N)N)NC(=O)[C@H](CCCNC(=N)N)NC(=O)[C@H](Cc1c[nH]c2ccccc12)NC(=O)[C@H](Cc1c[nH]c2ccccc12)NC(=O)[C@H](CCCNC(=N)N)NC(=O)[C@H](Cc1c[nH]c2ccccc12)NC(=O)[C@H](Cc1c[nH]c2ccccc12)NC(=O)[C@@H](N)CCCNC(=N)N)C(=O)O [WR-12] (H-RWWRWWRRWWRR-OH)
GM MIC S. pseudintermedius [1]: 1.5 µM | IC50 [2]: 128 µM | IC50 ([3]; 24 h): 128 µM | TI (Therapeutic index) J774A.1 ([3]; 24 h): 85.3/85.3 | MIC50 [4]: 1 µM (≈ 2.07 µg/mL) | MIC90 [4]: 2 µM (≈ 4.14 µg/mL) | MIC50 [5]: 0.5 µM (≈ 1.04 µg/mL) | MIC90 [5]: 2 µM (≈ 4.14 µg/mL)

Nisin
membrane perturbation, propidium iodide fluorescence (comparison in words) (SP3 [10]): faster and more potent at membrane perturbation

Source: publication PMC4281220, “Antibacterial Activity of Novel Cationic Peptides against Clinical Isolates of Multi-Drug Resistant Staphylococcus pseudintermedius from Infected Dogs” (PLoS ONE, 2014)
